Reference: patent US5212326A, “Sodium hydrogen divalproate oligomer” (Abbott Laboratories, priority 1991, dated 1993)

Experiments:
Format in all cases: in vivo
[1] = system: Pentylenetetrazole seizures; assay: Anticonvulsant activity, pentylenetetrazole seizures in mice (oral ED50); details: based on equimolar valproic acid equivalents
Text: (§1) In a comparison of anticonvulsant activities of
(§2) the oral ED50 based on equimolar valproic acid equivalents are established by standard procedures.

[2] = system: Pentylenetetrazole seizures; assay: Anticonvulsant activity, pentylenetetrazole seizures in rats (oral ED50); details: Rattus norvegicus, based on equimolar valproic acid equivalents
Text: as §1, §2

[3] = Bioavailability study, blood plasma levels in mouse; details: po, 200 mg/kg, equimolar doses, 30 minutes after administration, read-out: peak blood plasma levels
Description: (§3) In a bioavailability study carried out with (A) and (C) above in various animal species, the peak blood plasma levels of oral, equimolar doses are determined according to standard procedures, 30 minutes after drug administration.

[4] = Bioavailability study, blood plasma levels in rat; details: po, 200 mg/kg, equimolar doses, 30 minutes after administration, read-out: peak blood plasma levels
Description: as §3

[5] = Bioavailability study, blood plasma levels and AUC in dog; details: po, 25 mg/kg, equimolar doses
Description: as §3
*Area under the curve value for 0-7 hours.

SMILES	oral ED50, Pentylenetetrazole seizures (mice) [1] [mg/kg]	ED50 [2] [mg/kg]	Cmax at 0.5 h [3] [ng/g]	Cmax at 0.5 h [4] [ng/g]	AUC at 7 h ([5]; 0-7 hours, read-out: AUC (Area under the curve value for 0-7 hours)) [ng·h/mL]	Cmax at 0.5 h ([5]; 30 minutes after administration, read-out: peak blood plasma levels) [ng/g]	ED50 ([1]; Mus musculus, po) [mg/kg]
CCCC(CCC)C(=O)O [A, 2-propylpentanoic acid]	< 800	355	134000	84100	82300	65200	
CCCC(CCC)C(=O)[O-].[Na+] [B, sodium valproate]		415					282
